pIC50: −log10 of the molar value. Where a name gives a salt, the structure may show the parent alone.

Tested on in the first series: not given
Test: not given
Settings: not given
For orientation: melting point means the temperature of the solid-liquid transition. Regarding `COc1ccc(-n2cnc(Cn3ccnc3C)c2)cc1C(F)(F)F.Cl.Cl`, the melting point is > 222 °C (dec.).

Turning to `Cc1ccc(-n2cnc(Cn3ccnc3)c2)cc1F.Cl.Cl`, the melting point lay within 223 to 224 °C.

Regarding `CCc1nccn1Cc1cn(-c2ccc(OC)c(F)c2)cn1.Cl.Cl`, the melting point was 218 to 220 °C.

`COc1ccc(-n2cnc(Cn3ccnc3C)c2)cc1.Cl.Cl` came in with a melting point of over 250 °C.

The compound `CCc1nccn1Cc1cn(-c2ccc(-c3ccccc3)cc2)cn1.Cl.Cl` displayed a melting point of 248 to 253 °C.

On to `Cc1nccn1Cc1cn(-c2ccc3ncccc3c2)cn1` (as salt: sodium) [Example 220, 6-[4-(2-Methyl-imidazol-1-ylmethyl)-imidazol-1-yl]-quinoline], for which the melting point is > 125 °C (dec.).

Turning to `Cl.Cl.c1cn(Cc2cn(-c3ccc4c(c3)CCC4)cn2)cn1`, the melting point was 214 to 216 °C.

In the case of `Cc1nccn1Cc1cn(-c2cc(F)cc(Br)c2)cn1.Cl.Cl`, the melting point was > 200 °C (dec.).

Compound `Brc1ccc(-n2cnc(Cn3ccnc3)c2)cc1.Cl.Cl` yielded a melting point of 237 to 239 °C.

In turn, `CCc1nccn1Cc1cn(-c2ccc3c(c2)OCO3)cn1.Cl.Cl` yielded a melting point of over 250 °C.

In the case of `Cc1ccc(-n2cnc(Cn3ccnc3)c2)cc1C(F)(F)F.Cl.Cl`, the melting point was over 250 °C.

On to `COc1cc(-n2cnc(Cn3ccnc3)c2)ccc1Cl.Cl.Cl`, for which the melting point lay within 221 to 222 °C.

As to `Cl.Cl.FC(F)(F)Sc1ccc(-n2cnc(Cn3ccnc3)c2)cc1Cl`, the melting point was 244 to 245 °C.

For the compound `Cl.Cl.FC(F)(F)c1cc(-n2cnc(Cn3ccnc3)c2)ccc1Cl`, the melting point is over 250 °C.

As for `Cl.Cl.FC(F)(F)Oc1ccc(-n2cnc(Cn3ccnc3)c2)cc1Cl`, the melting point lay in the range of 212 to 213 °C.

In turn, `Cc1nccn1Cc1cnn(-c2ccc(Cl)c(Cl)c2)c1` [Example 114, 1-(3,4-Dichloro-phenyl)-4-(2-methyl-imidazol-1-yl-methyl)-1H-pyrazole] came in with a melting point of 176 to 177 °C.

For `CCc1nccn1Cc1cn(-c2ccc(Cl)cn2)cn1` (as salt: sodium) [Example 213, 5-Chloro-2-[4-(2-ethyl-imidazol-1-ylmethyl)-imidazol-1-yl]-pyridine], the melting point lay in the range of 182 to 185 °C.

As to `Cc1nccn1Cc1cn(-c2ccc3ccccc3n2)cn1` (as salt: sodium) [Example 204, 2-[4-(2-Methyl-imidazol-1-ylmethyl)-imidazol-1-yl]-quinoline], the melting point was 160 °C.

In turn, `Cc1nccn1Cc1cn(-c2cccc3cccnc23)cn1` (as salt: sodium) [Example 222, 8-[4-(2-Methyl-imidazol-1-ylmethyl)-imidazol-1-yl]-quinoline] had a melting point of 150 to 154 °C.

`CCc1nccn1Cc1cn(-c2ccc([N+](=O)[O-])cc2)cn1.Cl.Cl`: the melting point lay within 196 to 197 °C.

Turning to `Cc1nccn1Cc1cn(-c2cccc(C(F)(F)F)c2)cn1.Cl.Cl`, the melting point lay in the range of 218 to 220 °C.

`Cl.Cl.O=[N+]([O-])c1ccc(-n2cnc(Cn3ccnc3)c2)cc1` displayed a melting point of 245 to 246 °C.

Turning to `CCc1nccn1Cc1cn(-c2cccc(C(C)C)c2)cn1` (as salt: hydrochloride) [Example 153], the melting point is > 200 °C (dec.).

`CCc1nccn1Cc1cn(-c2ccc(F)c(C)c2)cn1.Cl.Cl` yielded a melting point of 210 to 212 °C.

`COc1cccc(-n2cnc(Cn3ccnc3C)c2)c1.Cl.Cl` registered a melting point of 242 to 243 °C.

Regarding `Cl.Cl.FC(F)c1cccc(-n2cnc(Cn3ccnc3)c2)c1`, the melting point was 216 to 217 °C.

Compound `Cc1nccn1Cc1cn(-c2cnc3ccccc3c2)cn1` (as salt: sodium) [Example 211, 3-[4-(2-Methyl-imidazol-1-ylmethyl)-imidazol-1-yl]-quinoline] gave a melting point of 168 to 172 °C.

Regarding `Cc1nccn1Cc1cn(-c2cccc(Cl)c2)cn1` (as salt: hydrochloride) [Example 173], the melting point is > 200 °C (dec.).

Turning to `CCc1nccn1Cc1cn(-c2ccc(SC(F)(F)F)c(Cl)c2)cn1.Cl.Cl`, the melting point lay within 214 to 215 °C.

`CCc1nccn1Cc1cn(-c2ccc(SC)cc2)cn1.Cl.Cl`: the melting point is 161 to 162 °C.

In the case of `CSc1ccc(-n2cnc(Cn3ccnc3)c2)cc1.Cl.Cl`, the melting point is 233 to 234 °C.

On to `CCc1nccn1Cc1cn(-c2ccc3c(c2)OC(F)(F)O3)cn1.Cl.Cl`, for which the melting point is 237 to 239 °C (dec.).

In turn, `CCc1nccn1Cc1cn(-c2cc(OC)cc(C(F)(F)F)c2)cn1` (as salt: hydrochloride) [Example 181] returned a melting point of 245 to 246 °C.

Consider `Cc1cc(-n2cnc(Cn3ccnc3N)c2)ccc1Cl` (as salt: hydrochloride) [Example 105, 1-[1-(4-Chloro-3-methyl-phenyl)-1H-imidazol-4-yl-methyl]-1H-imidazol-2-yl-amine-, Hydrochloride (1:2)], for which the melting point was 230 to 233 °C.

Compound `COc1cc(-n2cnc(Cn3ccnc3)c2)cc(C(F)(F)F)c1.Cl.Cl` registered a melting point of 244 to 246 °C.

As for `CCc1nccn1Cc1cn(-c2ccc(Cl)cc2F)cn1.Cl.Cl`, the melting point is 248 to 249 °C.

Take `CCc1nccn1Cc1cn(-c2ccc(Cl)c(OC)c2)cn1.Cl.Cl`: the melting point was 244 to 246 °C (dec.).

Consider `CC(C)(C)c1cccc(-n2cnc(Cn3ccnc3)c2)c1.Cl.Cl`, for which the melting point was > 200 °C (dec.).

As for `Cl.Cl.Clc1ccc(-n2cnc(Cn3ccnc3)c2)cc1`, the melting point was 228 to 229 °C.

`COc1cc(-n2cnc(Cn3ccnc3C)c2)ccc1Cl.Cl.Cl` gave a melting point of over 250 °C.

For the compound `CCc1nccn1Cc1cn(-c2ccc(C)c(C(F)(F)F)c2)cn1.Cl.Cl`, the melting point was over 250 °C.

In the case of `CNc1nccn1Cc1ncn(-c2ccc(Cl)c(Cl)c2)c1CO.Cl`, the melting point is > 180 °C (dec.).

For a further series, the target named is T1, NMDA-receptor subtype 2B (Rattus norvegicus, UniProt P35439+Q00960).
T1 construct: Membranes were prepared by homogenization of the whole brain minus cerebellum and medulla oblongata; from tissue; host or cells: rat whole brain minus cerebellum and medulla oblongata, membrane preparation
T1 sequence (Q00960 27-1482, other chains not shown): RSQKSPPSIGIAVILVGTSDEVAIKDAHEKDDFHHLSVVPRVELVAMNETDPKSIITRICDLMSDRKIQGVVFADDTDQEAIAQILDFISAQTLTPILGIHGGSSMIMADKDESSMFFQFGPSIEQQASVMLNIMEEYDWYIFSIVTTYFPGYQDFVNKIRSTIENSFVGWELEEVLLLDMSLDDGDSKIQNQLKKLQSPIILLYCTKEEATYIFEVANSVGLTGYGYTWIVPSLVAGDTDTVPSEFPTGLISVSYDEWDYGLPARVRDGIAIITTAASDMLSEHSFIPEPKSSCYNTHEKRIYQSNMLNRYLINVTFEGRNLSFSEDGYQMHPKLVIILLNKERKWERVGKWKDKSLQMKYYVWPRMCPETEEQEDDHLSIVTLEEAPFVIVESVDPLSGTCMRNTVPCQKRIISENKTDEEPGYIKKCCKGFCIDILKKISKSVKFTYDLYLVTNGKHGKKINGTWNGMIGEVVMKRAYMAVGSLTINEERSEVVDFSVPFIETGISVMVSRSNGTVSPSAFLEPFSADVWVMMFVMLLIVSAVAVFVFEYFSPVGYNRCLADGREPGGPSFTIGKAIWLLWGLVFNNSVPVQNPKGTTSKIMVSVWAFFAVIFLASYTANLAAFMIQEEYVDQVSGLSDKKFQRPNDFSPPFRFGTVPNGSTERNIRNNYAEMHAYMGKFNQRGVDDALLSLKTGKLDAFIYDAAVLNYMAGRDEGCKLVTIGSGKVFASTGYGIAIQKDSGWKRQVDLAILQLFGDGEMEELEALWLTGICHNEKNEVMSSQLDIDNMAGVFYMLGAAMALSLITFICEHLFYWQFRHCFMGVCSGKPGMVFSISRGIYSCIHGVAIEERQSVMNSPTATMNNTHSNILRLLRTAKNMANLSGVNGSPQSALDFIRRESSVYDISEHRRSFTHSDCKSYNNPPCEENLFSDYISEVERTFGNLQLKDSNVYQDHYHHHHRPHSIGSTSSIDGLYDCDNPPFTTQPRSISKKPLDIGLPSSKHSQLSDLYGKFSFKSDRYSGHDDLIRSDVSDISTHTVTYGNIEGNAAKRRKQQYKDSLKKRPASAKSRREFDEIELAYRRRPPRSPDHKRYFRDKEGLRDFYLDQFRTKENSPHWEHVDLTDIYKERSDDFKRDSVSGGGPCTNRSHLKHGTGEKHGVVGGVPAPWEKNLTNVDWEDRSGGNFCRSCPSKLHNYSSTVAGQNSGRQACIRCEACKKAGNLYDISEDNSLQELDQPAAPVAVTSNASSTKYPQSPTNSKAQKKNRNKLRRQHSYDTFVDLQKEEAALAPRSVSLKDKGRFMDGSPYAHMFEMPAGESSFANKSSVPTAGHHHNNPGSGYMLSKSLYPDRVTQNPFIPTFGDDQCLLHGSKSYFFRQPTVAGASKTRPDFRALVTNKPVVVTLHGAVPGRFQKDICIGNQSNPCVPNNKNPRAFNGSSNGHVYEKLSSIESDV
In words: 3H-Ro 25-6981 binding (displacement) on rat brain membranes. Conditions: displacement of 5 nM 3H-Ro 25-6981, rat whole brain membranes (minus cerebellum and medulla oblongata), 2 hours at 4° C. How it is done:
^3H[R-(R*,S*)]-(α-(4-Hydroxy-phenyl)-β-methyl-4-(phenyl-methyl)-1-piperidine propanol)binding
Male Füllinsdorf albino rats weighing between 150-200 g were used. Membranes were prepared by homogenization of the whole brain minus cerebellum and medulla oblongata with a Polytron (10.000 rpm, 30 seconds), in 25 volumes of a cold Tris-HCl 50 mM, EDTA 10 mM, pH 7.1 buffer. The homogenate was centrifuged at 48,000 g for 10 minutes at 4° C. The pellet was resuspended using the Polytron in the same volume of buffer and the homogenate was incubated at 37° C. for 10 minutes. After centrifugation the pellet was homogenized in the same buffer and frozen at −80° C. for at least 16 hours but not more than 10 days. For the binding assay the homogenate was thawed at 37° C., centrifuged and the pellet was washed three times as above in a Tris-HCl 5 mM, pH 7.4 cold buffer. The final pellet was resuspended in the same buffer and used at a final concentration of […]. ^3H-Ro 25-6981 binding experiments were performed using a Tris-HCl 50 mM, pH 7.4 buffer. For displacement experiments 5 nM of ^3H-Ro 25-6981 were used and non specific binding was measured using 10 mM of tetrahydroisoquinoline and usually it accounts for 10% of the total. The incubation time was 2 hours at 4° C. and the assay was stopped by filtration on Whatmann GF/B glass fiber filters (Unifilter-96, Packard, Zürich, Switzerland). The filters were washed 5 times with cold buffer. The radioactivity on the filter was counted on a Packard Top-count microplate scintillation counter after addition of […] of microscint 40 (Canberra Packard S.A., Zuirich, Switzerland).
The effects of compounds were measured using a minimum of 8 concentrations and repeated at least once.
As usually defined, the pIC50 is the IC50 on a negative log10 scale, so that one unit is a factor of ten. Low values mean a high IC50, high ones a low IC50. As to `CCc1nccn1Cc1cn(-c2cc(OC)cc(C(F)(F)F)c2)cn1` [Example 181], the pIC50 was 7.28.

`Cc1cc(-c2cnc(Cn3ccnc3C)n2C)ccc1Cl` [Example 232, 5-(4-Chloro-3-methyl-phenyl)-1-methyl-2-(2-methyl-imidazol-1-ylmethyl)-1-H-imidazole-hydrochloride Hydrochloride (1:1)]: the pIC50 was 7.40.

`Cc1nccn1Cc1cncc(-c2ccc3c(c2)CCC3)c1` [Example 139, 3-Indan-5-yl-5-(2-methyl-imidazol-1-yl-methyl)-pyridine Hydrochloride (1:1)] showed a pIC50 of 7.19.

With `Cc1nccn1Cc1cn(-c2cccc(Cl)c2)cn1` [Example 173], the pIC50 was 7.55.

“4-Imidazol-1-ylmethyl-1-(3-methylsulfanyl-phenyl)-1H-imidazole Hydrochloride (1:2) [Example 145]” had a pIC50 of 7.27.

Take `Cc1nccn1Cc1cncc(-c2ccc(F)c(C(F)F)c2)c1` [Example 225, 3-(3-Difluoromethyl-4-fluoro-phenyl)-5-(2-methyl-imidazol-1-ylmethyl)-pyridine]: the pIC50 was 8.00.

`Cc1nccn1Cc1cncc(-c2cccc(C(C)(F)F)c2)c1` [Example 226, 3-[3-(1,1-Difluoro-ethyl)-phenyl]-5-(2-methyl-imidazol-1-ylmethyl)-pyridine] had a pIC50 of 7.70.

In turn, `Clc1ccc(-n2cnc(Cn3ccnc3C3CC3)c2)cc1Cl` [Example 229, 1H-Imidazole, 2-Cyclopropyl-1-[[1-(3,4-dichlorophenyl)-1H-imidazol-4-yl]methyl]-,] had a pIC50 of 7.92.

Compound `Cc1cc(-c2c[nH]c(Cn3ccnc3C)n2)ccc1F` [Example 119, 1H-Imidazole, 1-[[4-(4-Fluoro-3-methylphenyl)-1H-imidazol-2-yl]methyl]-2-methyl-, Hydrochloride (1:2)] had a pIC50 of 7.34.

Take `Cc1nccn1Cc1cn(-c2ccc3ccccc3c2)cn1` [Example 155, 1H-Imidazole, 2-Methyl-1-[[1-(naphtalen-2-yl)-1H-imidazol-4-yl]methyl]-, Hydrochloride (1:2)]: the pIC50 is 8.00.

Regarding `Cc1ccc(-c2cncc(Cn3ccnc3C)c2)cc1Cl` [Example 136, 3-(3-Chloro-4-methyl-phenyl)-5-(2-methyl-imidazol-1-yl-methyl)-pyridine Hydrochloride (1:1)], the pIC50 was 7.10.

Turning to `CCc1nccn1Cc1cn(-c2cccc(C(C)C)c2)cn1` [Example 153], the pIC50 is 7.70.

Compound `Cc1nccn1Cc1cncc(-c2ccc(F)c(Cl)c2)c1` [Example 140, 3-(3-Chloro-4-fluoro-phenyl)-5-(2-methyl-imidazol-1-yl-methyl)-pyridine Hydrochloride (1:1)] gave a pIC50 of 7.40.

The compound `CCc1nccn1Cc1cn(-c2cccc(SC(F)(F)F)c2)cn1` [Example 143] gave a pIC50 of 8.14.

For the origin of these results see patent US6667335B2, “Imidazole derivatives” (Hoffmann-La Roche Inc., priority 2001, dated 2003).
